The values that follow come from PubChem BioAssay (NCI).

Structures are written as SMILES.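 In this assay, cells in 96-well plates receive the compound at five concentrations for 48 hours. Endpoints are linearly interpolated between the surrounding concentrations. GI50: concentration for 50% inhibition of growth. The concentration for full growth arrest is given as TGI.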

What all share (assay): inhibition of tumour cell growth, NCI panel, 48 h
Assay [1] concerns K-562 leukemia.
Assay [2] deals with MCF7 breast.
The subject of assay [3] is UO-31 renal.
In assay [4] the test system is HCT-116 colon.
Assay [5] concerns A498 renal.
Assay [6] concerns NCI/ADR-RES ovarian.
Assay [7] deals with HS 578T breast.
Assay [8] deals with LOX IMVI melanoma.
Assay [9] has as its system OVCAR-8 ovarian.
The subject of assay [10] is CCRF-CEM leukemia.

As to `C=C1CC[C@@]2(C#N)[C@H]3[C@H](CC[C@@H]2C)[C@@H](C)C[C@@H](CC(C)(C)C#N)[C@H]13`, the GI50 in [1] was 0.46 µM; in assay [2], 0.785 µM; in assay [3], 0.363 µM; in assay [4], 0.229 µM; in assay [5] it was 6.6 µM; in [6] it was 2.87 µM. Also, the GI50 is 0.637 µM in assay [7], 0.413 µM in assay [8], 0.785 µM in assay [9] and 1.62 µM in assay [10]. Moreover, the TGI in [1] is above 100 µM; in [2], 15.8 µM; in [3] it was 19.3 µM; in assay [4], 11.2 µM; in assay [5], 58.1 µM; in assay [6] it was 24.6 µM. For the same compound, the TGI in assay [7] stood at 55 µM; in assay [8], 14.5 µM; in [9], 33.7 µM; in assay [10], 33.5 µM.
Turning to `CC([C@H]1CCC2C3CCC4C[C@@H](NC=O)CC[C@]4(C)C3CC[C@@]21C)N(C)C` (stereo not given in full), the GI50 in [1] is 0.862 µM; in assay [2], 2.06 µM; in assay [3], 1.49 µM; in [4] it was 1.54 µM; in [5] it was 2.51 µM; in [6], 6.02 µM. Moreover, the GI50 in assay [7] is 2.69 µM; in assay [8], 1.53 µM; in assay [9], 6.48 µM; in assay [10], 2.31 µM. Besides, the TGI in assay [1] was 3.18 µM; in [2], 7.26 µM; in [3] it was 3.12 µM; in assay [4] it was 3.22 µM; in assay [5] it was 11.9 µM; in assay [6] it was 21.4 µM. For the same compound, the TGI in [7] was 12 µM; in [8], 3.37 µM; in [9], above 46.4 µM; in assay [10], 10.9 µM.
With `Cc1cc(C)c(O)c(CNCCCCCCNCc2cc(C)cc(C)c2O)c1`, the GI50 in [1] was 1.61 µM; in [2], 1.54 µM; in [3], 1.42 µM; in assay [4] it was 1.73 µM; in assay [5] it was 1.32 µM; in assay [6], 1.85 µM. In addition, the GI50 was 1.65 µM in assay [7], 1.48 µM in assay [8], 2.2 µM in [9] and 2.19 µM in assay [10]. Besides, the TGI in [1] amounted to 3.55 µM; in [2], 3.22 µM; in assay [3], 2.83 µM; in [4] it was 3.43 µM; in assay [5], 3.15 µM; in [6], 3.86 µM. Moreover, the TGI in assay [7] was 3.88 µM; in [8], 2.88 µM; in assay [9] it was 5.01 µM; in assay [10] it was 5.72 µM.
Consider `C=C1C[C@@H]2C/C=C/C(=O)C/C(C)=C\C=C\C(=O)O[C@H](C=O)C/C(C)=C/[C@H](C1)O2`, for which the GI50 in assay [1] was 0.16 µM; in assay [2], 0.277 µM; in assay [3], 3.33 µM; in assay [4], 0.37 µM; in assay [5] it was above 28.5 µM; in [6] it was 2.58 µM. Further, the GI50 in [7] was 4.23 µM; in assay [8], 0.711 µM; in assay [9], 1.49 µM; in [10] it was 0.315 µM. Further, the TGI in assay [1] is above 40.2 µM; in assay [2] it was 13.6 µM; in [3], 56.4 µM; in assay [4], 3.86 µM; in [5], above 55.6 µM; in [6], above 100 µM. The TGI is above 65.1 µM in [7], 13.5 µM in assay [8], above 100 µM in assay [9] and 0.956 µM in assay [10].
For the compound `CCN1C(=O)N(CC)C2C1NN=c1s/c(=C3\C(=O)N(CC(C)C)c4ccccc43)c(=O)n12` (stereo not given), the GI50 in assay [1] was 0.429 µM; in [2], 0.454 µM; in assay [3] it was 0.869 µM; in assay [4] it was 0.441 µM; in assay [5] it was 0.197 µM; in assay [6], 0.479 µM. For the same compound, the GI50 in assay [7] is 0.665 µM; in assay [8], 0.811 µM; in [9], 1.33 µM; in assay [10] it was 0.464 µM. Moreover, the TGI in [1] is above 100 µM; in assay [2] it was above 100 µM; in assay [3] it was above 100 µM; in assay [4], above 100 µM; in assay [5], 0.875 µM; in assay [6], above 30.4 µM. The TGI in [7] was 23.9 µM; in [8], above 100 µM; in assay [9] it was above 100 µM; in assay [10], above 100 µM.
With `CN(C)CCCN=C(N)N`, the TGI in [1], in assay [2], in assay [3], in assay [4], in [5] and in assay [6] was above 100 µM each time. The TGI in assay [7], in assay [8], in assay [9] and in assay [10] was above 100 µM throughout.
